3 compounds from patent US8993717B2, “Gadd45beta targeting agents” (Imperial Innovations Limited, priority 2009, dated 2015) can be followed below.

SMILES strings stand for the structures. Square brackets hold non-standard residues; d marks the D form. Peptide text beside a SMILES is read from it. * marks the point of attachment. Cbz = O=C(OCc1ccccc1)*

Data set [1] deals with U266, KMS-11, NCI-H929, ARH-77, JJN-3, KMS-12, KMS-18, KMS-27 cells. Nature of the data set: [3H]thymidine incorporation assay, panel of 8 sensitive multiple myeloma cell lines. In kind it is cell-based, human. Conditions: treatment for 144 hrs; read-out: IC50s ranging over the sensitive multiple myeloma cell lines. The protocol: Cultures of multiple myeloma cells and treatments with Z-DTPs were carried out as described in Example 8 (see below). The effects of Z-DTPs on the survival/proliferation of multiple myeloma cells were evaluated by the use of [^3H]thymidine) incorporation assays, performed as also described in Example 8. The amount of cell proliferation measured with each of the Z-DTPs' concentrations used and with the untreated cultures (i.e. cultures incubated with medium alone), was expressed as counts per minute (c.p.m.)—which directly correlate with the extent of cell proliferation. All experiments were performed in triplicate.

The subject of data set [2] is 22 resistant tumour cell lines. Briefly: [3H]thymidine incorporation assay in a panel of 22 resistant tumour cell lines. Conditions: 100 μM, 144 hours. The protocol: In these latter assays, the effects of Z-DTPs, Ac-DTPs and Z-LTPs on the survival/proliferation of tumour cell lines was investigated by measuring DNA synthesis using standard tritiated thymidine ([^3H]thymidine; [^3H]-TdR) uptake assays. In the analyses shown, cells were incubated for 24, 72, 120 or 144 hrs at 37° C. in the presence or absence of control or bioactive tetrapeptides, as indicated, then subjected to an additional incubation for 18 hrs with [^3H]-TdR (0.037 MBq/well, equivalent to […]). Cells were subsequently harvested onto glass fibre filter mats using a 96-well plate automated cell harvester, after which scintillation fluid was added, and [^3H]thymidine incorporation measured by liquid scintillation spectroscopy on a beta counter. The results are expressed as the percentages of the counts per minute (c.p.m.) (directly correlating with the extent of cell proliferation) measured with tetrapeptide-treated cultures relative to the c.p.m. measured with the corresponding cultures incubated with medium alone (untreated cells). All experiments were performed in triplicate.

Another data set is described as follows: Solubility. Type of data set: physicochemical. Conditions: result in words.
For a further data set, the target named is T1, Gadd45β (Homo sapiens, UniProt O75293).
T1 construct: made in house
T1 sequence (O75293 1-160): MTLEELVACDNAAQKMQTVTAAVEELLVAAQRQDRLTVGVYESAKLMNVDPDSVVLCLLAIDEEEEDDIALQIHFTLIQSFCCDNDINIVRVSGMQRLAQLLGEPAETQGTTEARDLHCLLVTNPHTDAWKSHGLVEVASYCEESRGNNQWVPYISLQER
Briefly: Surface Plasmon Resonance, immobilized Gadd45β. In kind it is binding. Conditions: 1 nM to 10 μM. As to the method:
(§1) To determine how DTPs bind to the Gadd45 β/MKK7 complex, experiments were performed with a Biacore3000 SPR instrument (GE Healthcare, Milan, Italy), using 4-channels CM5 sensorchips (GE Healthcare, Milan, Italy). Full length human Gadd45β was prepared and purified as described in the reference by Tornatore L., et al. (2008). J Mol Biol; 378:97-111. […] The protein was purified to homogeneity by two subsequent steps of affinity chromatography (Ni-NTA support) and gel filtration (Superdex G75), and then characterized by SDS-PAGE, LC-MS to verify identity and purity, and by Circular Dichroism to assess folding.
(§2) MKK7KD was immobilized on the Biacore sensorchip via classical EDC/NHS coupling chemistry at pH 5 (protein pI, ˜9) at a flow rate of 5 uL/min An immobilization level of about 8000 Response Units was achieved. Gadd45β, which is an intrinsically acidic protein with a pI of about 4.5, was immobilized at pH 3.5 (6000 RU immobilization levels) on a separate channel. The residual reactive groups on both the Gadd45β and MKK7KD channels were finally inactivated by treatment with ethanolamine. On another channel the same procedure of activation with EDC/NHS and inactivation with ethanolamine was performed. […]

Data set [3] concerns the target T2, kinase domain of MKK7 (MKK7KD) (Homo sapiens, UniProt O14733, S271D/T275D).
T2 construct: His6; made in house; host or cells: E. coli
T2 sequence (O14733 101-405 isoform O14733-3 S287D/T291D): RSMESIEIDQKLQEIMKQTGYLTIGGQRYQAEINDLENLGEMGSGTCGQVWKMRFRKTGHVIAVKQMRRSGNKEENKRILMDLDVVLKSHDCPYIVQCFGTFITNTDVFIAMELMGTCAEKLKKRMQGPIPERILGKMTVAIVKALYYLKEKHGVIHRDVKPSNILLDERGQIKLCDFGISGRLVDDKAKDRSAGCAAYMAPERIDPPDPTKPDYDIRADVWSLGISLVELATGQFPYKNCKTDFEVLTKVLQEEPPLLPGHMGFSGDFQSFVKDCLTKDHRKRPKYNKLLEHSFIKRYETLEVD
Nature of the data set: Surface Plasmon Resonance, immobilized MKK7KD. Conditions: 1 nM to 10 μM. In kind it is binding. As to the method: as §1, §2

Another data set addresses T3, Gadd45β/MKK7 complex (Homo sapiens, UniProt O14733, S271D/T275D).
T3 construct: His6; made in house; host or cells: E. coli (MKK7KD)
T3 sequence (O14733 101-405 isoform O14733-3 S287D/T291D limits assumed): T2 sequence (O14733 101-405 isoform O14733-3 S287D/T291D)
Briefly: Surface Plasmon Resonance, preformed Gadd45β/MKK7KD complex. In kind it is binding. The protocol:
as §1, §2

Take `NC(=O)[C@@H](Cc1ccccc1)NC(=O)[C@@H](Cc1c[nH]cn1)NC(=O)[C@@H](CC(=O)O)NC(=O)[C@@H](Cc1ccc(O)cc1)NC(=O)OCc1ccccc1` [Compound 1, Z-Tyr-Asp-His-Phe-NH2] (Cbz-[dY][dD][dH][dF]-NH2): the IC50 in data set [1] is 10.1 to 4900 nM.

With `N=C(N)NCCC[C@@H](NC(=O)[C@@H](CCC(=O)O)NC(=O)[C@@H](Cc1ccc(O)cc1)NC(=O)OCc1ccccc1)C(=O)N[C@H](Cc1ccccc1)C(N)=O` [Compound 9, Z-D-Tyr-D-Glu-D-Arg-D-Phe-NH2] (Cbz-[dY][dE][dR][dF]-NH2), the “cytotoxicity in resistant tumour cell lines” value in data set [2] was “no cytotoxicity”. Moreover, the solubility result in the data set “Solubility” is “high solubility”.

As for `CC(=O)N[C@H](Cc1ccc(O)cc1)C(=O)N[C@H](CCCNC(=N)N)C(=O)N[C@H](Cc1ccccc1)C(N)=O` [Compound 17, Ac-D-Tyr-D-Arg-D-Phe-NH2] (Ac-[dY]-[dR]-[dF]-NH2), the “binding to Gadd45β in isolation” value at Gadd45β is “does not bind”. In data set [3], the “binding to MKK7KD in isolation” value is recorded as “does not bind”. In addition, the “effect on preformed Gadd45β/MKK7KD complex” value on Gadd45β/MKK7 complex (injected at 10 nM or 100 nM during dissociation phase) is given as “induced a rapid dissociation of the Gadd45β/MKK7KD complex”. The “binding to preformed Gadd45β/MKK7KD complex” value on Gadd45β/MKK7 complex (injected at higher concentrations (e.g. 1 μM)) is “dose-response binding and dissociation curves were recorded”.
